Measured values published in ChEMBL document CHEMBL1156829 (Proc Natl Acad Sci U S A, 2008).

Assays:
Plasmodium falciparum [1] = test: NOVARTIS: Inhibition of Plasmodium falciparum 3D7 (drug-susceptible) proliferation in erythrocyte-based infection assay; type: functional, organism-based; details: Plasmodium falciparum, 3D7
[2] = NOVARTIS: Cytotoxicity against human hepatocellular carcinoma cell line (Huh7); type: toxicity, cell-based, Huh-7; details: Huh7 cells (hepatocellular carcinoma cell line)
Plasmodium falciparum [3] = test: NOVARTIS: Inhibition of Plasmodium falciparum W2 (drug-resistant) proliferation in erythrocyte-based infection assay; type: functional, organism-based; details: Plasmodium falciparum, W2; read-out: EC50

SMILES | EC50 (Plasmodium falciparum [1]) | CC50 [2] | EC50 (Plasmodium falciparum [3])
CCCCOC(=O)C1=C(C)NC2=C(C(=O)CCC2)C1c1ccc(Cl)c(Cl)c1 (configuration not stated) | 0.574 µM | > 100 µM | 0.359 µM
COc1ccc(C(OCC(=O)N2CCSCC2)c2ccncc2Cl)cc1 (configuration not stated) | > 12.3 µM | > 100 µM | 1.45 µM
c1ccc2c(NCCNc3c4ccccc4nc4ccccc34)c3ccccc3nc2c1 | 0.0829 µM | 11.8 µM | 0.858 µM
OC1=C2C(=Nc3ccccc3SC2c2ccco2)c2ccccc21 (configuration not stated) | 0.251 µM | 55.3 µM | 0.35 µM
O=C(CC(=O)N1CCOCC1)Nc1ccc2nc3n(c(=O)c2c1)CCCCC3 | > 10 µM | > 100 µM | 0.432 µM
CCc1cc2c(cc1-c1csc(NC(=N)N)n1)C(C)(C)CCC2(C)C | 0.733 µM | 24.6 µM | 0.961 µM
CCOC(=O)C1=C(C)NC2=C(C(=O)C(C(=O)OCC)C(c3ccccc3OC)C2)C1c1ccc([N+](=O)[O-])cc1 (configuration not stated) | 0.114 µM | > 100 µM | 0.102 µM
Cc1cc(N2CCCCC2)nc2ccc(NC(=O)c3cncc(Br)c3)cc12 | 1.36 µM | > 10 µM | > 1.25 µM
Cc1ccc(-c2c3c4n(c(-c5ccc(Cl)cc5)cn4c2C(=O)Nc2ccccc2Cl)CCCC3)cc1 | 0.269 µM | > 100 µM | 1.16 µM
CCN(c1ccc(OC)cc1)S(=O)(=O)c1ccc(C)cc1 | > 12.5 µM | > 100 µM | 1.37 µM
CCN(CC)CCN(Cc1cc2cc(OC)ccc2[nH]c1=O)C(=S)Nc1ccc(F)cc1 | 2.08 µM | 51.4 µM | 3.32 µM
CCc1c(C)c(C#N)c2nc3ccccc3n2c1NCc1ccccc1 | 0.787 µM | > 100 µM | 0.238 µM
Cc1ccc(NC(=O)c2ccc(NCCCN3CCC(C)CC3)c([N+](=O)[O-])c2)cc1F | 0.191 µM | > 100 µM | 0.33 µM
CC(=O)N1CCOC1C(C)(C)CC=C(C)CCC=C(C)C (configuration not stated) | 2.04 µM | > 100 µM | 1.34 µM
COC(=O)c1c(-c2c(Cl)cccc2Cl)noc1NC(=O)NN1CCCCC1 | 0.277 µM | > 100 µM | 0.151 µM
CCN1C(=O)c2ccccc2Sc2ccc(NC(=O)NCCCOC(C)C)cc21 | > 10 µM | 32.1 µM | > 10 µM
CC(=O)C(=NNc1cc(C(F)(F)F)cc(C(F)(F)F)c1)C(C)=O | > 1.25 µM | > 10 µM | 0.0267 µM

SMILES | EC50 (Plasmodium falciparum [1]) | CC50 [2] | EC50 (Plasmodium falciparum [3])
Cc1cccc(NS(=O)(=O)c2ccc3[nH]c(=O)ccc3c2)c1C | > 12.5 µM | 81.8 µM | 0.838 µM
CCn1c(SCCCCNC(=O)c2cc([N+](=O)[O-])cc([N+](=O)[O-])c2)nc(-c2ccccc2)c1-c1ccccc1 | 0.724 µM | 6.52 µM | 0.612 µM
CC1=NOC(=O)/C1=C/c1ccc(-c2ccc([N+](=O)[O-])cc2)o1 | > 1.25 µM | > 10 µM | > 0.865 µM
Cc1cc(Nc2ccc(Cl)cc2)nc(NCc2ccccc2)n1 | 0.0919 µM | 19.6 µM | 0.15 µM
CC1=NNC(=O)C1C(c1ccc(Cl)cc1Cl)C1C(=O)NN=C1C (configuration not stated) | > 0.484 µM | > 10 µM | > 1.25 µM
COc1cccc2cc(-c3csc(NC(=O)CCC(=O)NC4CCCC4)n3)c(=O)oc12 | > 1.25 µM | > 10 µM | > 1.07 µM
COC(=O)CNC(c1ccccc1)c1cc(Br)ccc1NC(=O)C(Cc1ccccc1)NC(=O)OCc1ccccc1 (configuration not stated) | 4.08 µM | > 100 µM | 1.28 µM
COc1ccc(C(NC(=O)c2cccc(OC)c2)c2cc(Cl)c3cccnc3c2O)cc1 (configuration not stated) | 0.983 µM | > 100 µM | 1.38 µM
CCCCN1Cc2ccc(C(N)=O)cc2N=C1C1CC1 | 0.062 µM | > 11.4 µM | 0.212 µM
O=[N+]([O-])c1cc(C(F)(F)F)cc([N+](=O)[O-])c1Sc1cccc2cccnc12 | 4.34 µM | 4.34 µM | 1.12 µM
OC(CNC1CCN(Cc2ccccc2)CC1)COc1ccc(Br)cc1 (configuration not stated) | 0.745 µM | > 10 µM | 0.499 µM
COC(=O)C1=C(C)N/C(=C\c2cc(C)n(-c3cc(Cl)ccc3Cl)c2C)C1=O | 1.52 µM | > 10 µM | 1.01 µM
COc1cccc(C(=O)Oc2ccccc2-c2nc3ccccn3c2NC(C)(C)CC(C)(C)C)c1 | 0.27 µM | > 10 µM | 0.033 µM
COC(=O)c1ccc2c(=O)n(Cc3ccco3)c(SCC(=O)n3nc(N)cc3C)nc2c1 | 0.337 µM | > 100 µM | 0.819 µM
CC(C)(C)c1ccc(C(=O)Nc2ccc(NC(=O)c3ccc(-c4ccc([N+](=O)[O-])cc4)o3)cc2)cc1 | 1.21 µM | > 100 µM | 3.3 µM
CC(C)(C)NCC(O)Cn1c2ccc(Cl)cc2c2cc(Cl)ccc21 (configuration not stated) | 0.258 µM | 18.8 µM | 0.0563 µM
COc1ccc2[nH]c3ccccc3c(=O)c2c1 | 4.32 µM | > 100 µM | 3.15 µM
